Experimental findings from US11834414B2, “1-methyl-4-[(4-phenylphenyl)sulfonylmethyl]cyclohexyanol and 1-methyl-4-[[4-(2-pyridyl)phenyl]sulfonylmethyl]cyclohexanol compounds and their therapeutic use” (Modern Biosciences Limited, priority 2018, dated 2023) are described below.

Each structure is given as a SMILES string.

Series [1] in a line: Human hepatocyte stability. Format: in vitro ADME. The following applies: human, pooled human hepatocytes, human hepatocytes, 1 μM, 60 minute incubation; for hepatocyte CLint at 1 μM: read-out: Human Clint (uL/min/million cells); for half-life at 1 μM: read-out: Human t1/2. Here is the method:
(§1) Metabolic stability of test compounds was measured by determination of the rate of disappearance of the compound when incubated in the presence of rat or human hepatocytes, a primary source of the most important enzymes (cytochrome P450s) involved in drug metabolism. Study of drug stability in the presence of primary hepatocytes is accepted as a valuable model permitting rapid prediction of in vivo drug stability.
(§2) Rat or human hepatocytes were obtained from a commercial source and viability was assessed using a trypan blue solution prior to use. Test compounds (final concentration 1 μM, 0.1% DMSO, 0.9% acetonitrile) or a marker (diclofenac or diltiazem, final assay concentration 1 μM, 0.1% DMSO, 0.9% acetonitrile) were incubated with pooled hepatocytes for a 60 minute period and samples removed at up to 6 time points and analysed by LC-MS/MS for the presence/amount of test compounds.
(§3) Each compound was incubated for 0, 5, 15, 30, 45, or 60 minutes. The reactions were stopped by the addition of methanol containing an internal standard (1 μM Tolbutamide) at the appropriate time points, mixed and placed at −20° C. for ≥1 hour to quench and allow protein to precipitate. All samples were centrifuged (2500×g, 20 minutes, 4° C.). The aliquots were analysed using LC-MS/MS. Reactions were performed in duplicate at 37° C.
(§4) Data were processed, and the results plotted as In(concentration) vs. time. The elimination rate constant (slope of the regression line, k) was calculated using the following formula, where C(t) is the concentration at time t and C(0) is the starting concentration:
(§5) The half-life (t1/2) was calculated using the following formula: […]
(§6) The intrinsic clearance (CIint) was calculated using the following formula, where [cell] is the hepatocyte concentration in the assay: […]

The nature of another series: Rat hepatocyte stability. Format: in vitro ADME. The following applies: rat, pooled rat hepatocytes, 60 minute incubation. The procedure:
as §1, §2, §3, §4, §5, §6

Series [2] concerns Thp1 human monocytic cells. Nature of the series: Thp1 Monocyte ATP Production Assay. The series is classed as cell-based. As to conditions: for IC50: Thp1 cells, 24 hour incubation, ATPLite, 9-point range 10 μM to 10 nM, mean of 2 independent experiments. Here is the method:
In vitro potency of test compounds was determined by incubation with Thp1 human monocytic cells and subsequent determination of Adenosine TriPhosphate (ATP) levels using firefly luciferase.
ATP is present in all metabolically active cells. When cells lose integrity, their ability to synthesise ATP is rapidly lost. […] See, e.g., Kang et al., 2015; Jiang et al., 2013. Levels of ATP can be monitored using a system based on firefly (Photinus pyralis) luciferase (see, e.g., Auld et al., 2009) using commercially available kits. A system known as
ATPlite™ was using to measure effects of the test compounds on cellular viability in vitro. This one-step assay system is an adenosine triphosphate (ATP) monitoring system based on the production of light caused by the reaction of ATP from the cells with added luciferase and D-luciferin, as illustrated in the reaction scheme below:
The emitted light is proportional to the ATP concentration.
Thp1 cells were plated at 112500 cells per well in 125 μL RPMI-1640 (no glucose) with 1% FBS in 96-well plates. Test compounds were prepared as 100 mM solutions in DMSO. These stock solutions were diluted in DMSO and then diluted 1000× in culture medium (RPMI) before being added directly to the wells so as to give the desired final compound concentration. After a 24 hour incubation at 37° C./5% CO2, ATPLite™ (Perkin Elmer) was added to each well (1:10 v/v, 10 μL). The plate was then incubated at room temperature for 5 minutes and the emitted light was quantified on Viewlux with a measurement time of 0.3 seconds and binning 4×4.
The average results for each test compound were expressed as a percent (%) of the average control value reflecting cell viability. The average values across the concentrations tested were then plotted and the IC50 for was calculated by fitting the data to a 4-parameter IC50 equation using software from Graf it (Erithacus Software). Each experiment was repeated twice and the data are presented as the mean IC50 from both experiments.

Take `O=S(=O)(N[C@H]1CC[C@H](O)CC1)c1ccc(-c2ccc(F)cc2F)cc1` [ABD599, reference compound]: in series [1], the hepatocyte CLint at 1 μM turned out to be 22 µL/min/1e6 cells and the half-life at 1 μM was found to be 112 min.
As usually defined, the IC50 is the concentration at which inhibition is half-maximal. High values mean weaker potency, low ones greater potency. For `C[C@]1(O)CC[C@H](NS(=O)(=O)c2ccc(-c3ccc(F)cc3F)cc2)CC1` [ABD900, reference compound], the figures for the hepatocyte CLint at 1 μM (in series [1]; in “Rat hepatocyte stability” (read-out: Rat Clint (μL/min/million cells))) were 6.3 µL/min/1e6 cells and 79 µL/min/1e6 cells, respectively. The values for the half-life at 1 μM (in series [1]; in “Rat hepatocyte stability” (read-out: Rat t1/2)) were 220 min and 17.9 min, respectively. The same molecule displayed an IC50 in series [2] of 1100 nM.
For `C[C@]1(O)CC[C@H](CS(=O)(=O)c2ccc(-c3ccc(C#N)cc3F)cc2)CC1` [CHMSA-01-B, 2-Fluoro-4′-(((trans-4-hydroxy-4-methylcyclohexyl)methyl)sulfonyl)-[1,1′-biphenyl]-4-carbonitrile], in series [1], the hepatocyte CLint at 1 μM turned out to be 4.5 µL/min/1e6 cells and the half-life at 1 μM came out at 297 min. In addition, the IC50 in series [2] (Homo sapiens, THP-1, 24 h) amounted to 4400 nM.
For `C[C@]1(O)CC[C@H](CS(=O)(=O)c2ccc(-c3ccc(C#N)cc3Cl)cc2)CC1` [CHMSA-05-B, 2-Chloro-4′-(((trans-4-hydroxy-4-methylcyclohexyl)methyl)sulfonyl)-[1,1′-biphenyl]-4-carbonitrile] the same measures were 6.5 µL/min/1e6 cells, 227 min and 2700 nM.
`C[C@]1(O)CC[C@@H](CS(=O)(=O)c2ccc(-c3ccc(F)cc3F)c(C#N)c2)CC1` [CHMSA-06-A, 2′,4′-difluoro-4-(((cis-4-hydroxy-4-methylcyclohexyl)methyl)sulfonyl)-[1,1′-biphenyl]-2-carbonitrile] gave an IC50 in series [2] (Homo sapiens, THP-1, 24 h) of 1800 nM.
The same measure, in the same setting: next, `C[C@]1(O)CC[C@H](CS(=O)(=O)c2ccc(-c3ccc(F)cc3F)c(C#N)c2)CC1` [CHMSA-06-B, 2′,4′-Difluoro-4-(((trans-4-hydroxy-4-methylcyclohexyl)methyl)sulfonyl)-[1,1′-biphenyl]-2-carbonitrile]: 4500 nM; `C[C@]1(O)CC[C@@H](CS(=O)(=O)c2ccc(-c3ccc(C#N)cc3)c(Cl)c2)CC1` [CHMSA-07-A, 2′-chloro-4′-(((cis-4-hydroxy-4-methylcyclohexyl)methyl)sulfonyl)-[1,1′-biphenyl]-4-carbonitrile]: 1300 nM.
The same measure, in the same setting: next, `C[C@]1(O)CC[C@H](CS(=O)(=O)c2ccc(-c3ccc(C#N)cc3)c(Cl)c2)CC1` [CHMSA-07-B, 2′-Chloro-4′-(((trans-4-hydroxy-4-methylcyclohexyl)methyl)sulfonyl)-[1,1′-biphenyl]-4-carbonitrile]: 2500 nM.
`C[C@]1(O)CC[C@@H](CS(=O)(=O)c2ccc(-c3ccc(F)cc3F)cc2C(F)(F)F)CC1` [CHMSA-08-A, cis-4-(((2′,4′-difluoro-3-(trifluoromethyl)-[1,1′-biphenyl]-4-yl)sulfonyl)methyl)-1-methylcyclohexan-1-ol]: in series [1], the hepatocyte CLint at 1 μM worked out at 18 µL/min/1e6 cells and the half-life at 1 μM amounted to 73.2 min. Moreover, in series [2] (Homo sapiens, THP-1, 24 h), the IC50 worked out at 200 nM. Further, in series [2] (compared to the reference compounds), the “potency in the Thp1 monocytic ATP assay (in words)” value was “excellent potency”.
In the case of `C[C@]1(O)CC[C@H](CS(=O)(=O)c2ccc(-c3ncc(F)cc3F)cc2C(F)(F)F)CC1` [CHMSA-09-B, trans-4-(((4-(3,5-Difluoropyridin-2-yl)-2-(trifluoromethyl)phenyl)sulfonyl)methyl)-1-methylcyclohexan-1-ol], in series [1], the hepatocyte CLint at 1 μM was determined as 52.9 µL/min/1e6 cells and the half-life at 1 μM amounted to 25 min. The same molecule had an IC50 in series [2] (Homo sapiens, THP-1, 24 h) of 500 nM.
For `C[C@]1(O)CC[C@H](CS(=O)(=O)c2ccc(-c3ccc(Cl)cc3Cl)cc2)CC1` [CHMSA-11-B, trans-4-(((2′,4′-Dichloro-[1,1′-biphenyl]-4-yl)sulfonyl)methyl)-1-methylcyclohexan-1-ol], in that order: 13.3 µL/min/1e6 cells, 99.8 min and 800 nM.
